Results: the supplement of paper PMC10307832

Tests used:
Experiment in all cases: relative viability (nuclei count vs DMSO), 5 days (fraction); higher = more cells survive
201T = test system: 201T
Outline: (§1)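 Values are medians from duplicate plates. Each reflects relative viability, defined as the nuclei count of treated wells over that of vehicle wells. Lung cancer cell lines in 1536-well plates were pin-tool dosed one day after seeding with one drug alone or with a fixed anchor-drug dose plus five library-drug doses (not always all listed) in √10 steps, then fixed, stained and imaged at 4× after 5 days.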

A-427 = test system: A-427
Outline: as §1

ABC-1 = test system: ABC-1
Outline: as §1

BEN = test system: BEN
Outline: as §1

CAL-12T = test system: CAL-12T
Outline: as §1

H3255 = test system: H3255
Outline: as §1

LC-2-ad = test system: LC-2-ad
Outline: as §1

LCLC-97TM1 = test system: LCLC-97TM1
Outline: as §1

NCI-H1650 = test system: NCI-H1650
Outline: as §1

NCI-H1651 = test system: NCI-H1651
Outline: as §1

NCI-H1792 = test system: NCI-H1792
Outline: as §1

NCI-H1915 = test system: NCI-H1915
Outline: as §1

NCI-H1944 = test system: NCI-H1944
Outline: as §1

NCI-H2023 = test system: NCI-H2023
Outline: as §1

NCI-H2087 = test system: NCI-H2087
Outline: as §1

NCI-H441 = test system: NCI-H441
Outline: as §1

NCI-H460 = test system: NCI-H460
Outline: as §1

NCI-H520 = test system: NCI-H520
Outline: as §1

NCI-H596 = test system: NCI-H596
Outline: as §1

NCI-H650 = test system: NCI-H650
Outline: as §1

NCI-H661 = test system: NCI-H661
Outline: as §1

NCI-H727 = test system: NCI-H727
Outline: as §1

PC-3 [JPC-3] = test system: PC-3 [JPC-3]
Outline: as §1

CC1(C)CCC(c2ccc(Cl)cc2)=C(CN2CCN(c3ccc(C(=O)NS(=O)(=O)c4ccc(N[C@H](CCN5CCOCC5)CSc5ccccc5)c(S(=O)(=O)C(F)(F)F)c4)cc3)CC2)C1 [Navitoclax] + COc1cccc2cc(-c3nc([C@H]4CC[C@H](C(=O)O)CC4)n4ncnc(N)c34)[nH]c12 [OSI-027] (partner 0.5 µM)
relative viability (201T; first compound 0.005 µM): 0.73 | relative viability (201T; first compound 0.01581 µM): 0.805 | relative viability (201T; first compound 0.05 µM): 0.392 | relative viability (201T; first compound 0.1581 µM): 0.707 | relative viability (201T; first compound 0.5 µM): 0.647 | relative viability (A-427; first compound 0.005 µM): 0.485 | relative viability (A-427; first compound 0.01581 µM): 0.525 | relative viability (A-427; first compound 0.05 µM): 0.444 | relative viability (A-427; first compound 0.1581 µM): 0.477 | relative viability (A-427; first compound 0.5 µM): 0.392 | relative viability (ABC-1; first compound 0.005 µM): 0.506 | relative viability (ABC-1; first compound 0.01581 µM): 0.637 | relative viability (ABC-1; first compound 0.05 µM): 0.397 | relative viability (ABC-1; first compound 0.1581 µM): 0.572 | relative viability (ABC-1; first compound 0.5 µM): 0.356 | relative viability (BEN; first compound 0.005 µM): 0.286 | relative viability (BEN; first compound 0.01581 µM): 0.308 | relative viability (BEN; first compound 0.05 µM): 0.333 | relative viability (BEN; first compound 0.1581 µM): 0.308 | relative viability (BEN; first compound 0.5 µM): 0.281 | relative viability (CAL-12T; first compound 0.005 µM): 0.649 | relative viability (CAL-12T; first compound 0.01581 µM): 0.676 | relative viability (CAL-12T; first compound 0.05 µM): 0.557 | relative viability (CAL-12T; first compound 0.1581 µM): 0.677 | relative viability (CAL-12T; first compound 0.5 µM): 0.629 | relative viability (H3255; first compound 0.005 µM): 0.629 | relative viability (H3255; first compound 0.01581 µM): 0.643 | relative viability (H3255; first compound 0.05 µM): 0.568 | relative viability (H3255; first compound 0.1581 µM): 0.67 | relative viability (H3255; first compound 0.5 µM): 0.611 | relative viability (LC-2-ad; first compound 0.005 µM): 0.802 | relative viability (LC-2-ad; first compound 0.01581 µM): 1.09 | relative viability (LC-2-ad; first compound 0.05 µM): 0.895 | relative viability (LC-2-ad; first compound 0.1581 µM): 0.762 | relative viability (LC-2-ad; first compound 0.5 µM): 0.767 | relative viability (LCLC-97TM1; first compound 0.005 µM): 0.608 | relative viability (LCLC-97TM1; first compound 0.01581 µM): 0.484 | relative viability (LCLC-97TM1; first compound 0.05 µM): 0.569 | relative viability (LCLC-97TM1; first compound 0.1581 µM): 0.482 | relative viability (LCLC-97TM1; first compound 0.5 µM): 0.601 | relative viability (NCI-H1650; first compound 0.005 µM): 0.601 | relative viability (NCI-H1650; first compound 0.01581 µM): 1 | relative viability (NCI-H1650; first compound 0.05 µM): 0.698 | relative viability (NCI-H1650; first compound 0.1581 µM): 0.526 | relative viability (NCI-H1650; first compound 0.5 µM): 0.445 | relative viability (NCI-H1651; first compound 0.005 µM): 0.685 | relative viability (NCI-H1651; first compound 0.01581 µM): 0.795 | relative viability (NCI-H1651; first compound 0.05 µM): 0.813 | relative viability (NCI-H1651; first compound 0.1581 µM): 0.782 | relative viability (NCI-H1651; first compound 0.5 µM): 0.721 | relative viability (NCI-H1792; first compound 0.005 µM): 0.747 | relative viability (NCI-H1792; first compound 0.01581 µM): 0.799 | relative viability (NCI-H1792; first compound 0.05 µM): 0.667 | relative viability (NCI-H1792; first compound 0.1581 µM): 0.726 | relative viability (NCI-H1792; first compound 0.5 µM): 0.705 | relative viability (NCI-H1915; first compound 0.005 µM): 0.595 | relative viability (NCI-H1915; first compound 0.01581 µM): 0.636 | relative viability (NCI-H1915; first compound 0.05 µM): 0.627 | relative viability (NCI-H1915; first compound 0.1581 µM): 0.521 | relative viability (NCI-H1915; first compound 0.5 µM): 0.629 | relative viability (NCI-H1944; first compound 0.005 µM): 0.401 | relative viability (NCI-H1944; first compound 0.01581 µM): 0.495 | relative viability (NCI-H1944; first compound 0.05 µM): 0.364 | relative viability (NCI-H1944; first compound 0.1581 µM): 0.376 | relative viability (NCI-H1944; first compound 0.5 µM): 0.419 | relative viability (NCI-H2023; first compound 0.005 µM): 0.405 | relative viability (NCI-H2023; first compound 0.01581 µM): 0.446 | relative viability (NCI-H2023; first compound 0.05 µM): 0.338 | relative viability (NCI-H2023; first compound 0.1581 µM): 0.38 | relative viability (NCI-H2023; first compound 0.5 µM): 0.416 | relative viability (NCI-H2087; first compound 0.005 µM): 0.47 | relative viability (NCI-H2087; first compound 0.01581 µM): 0.679 | relative viability (NCI-H2087; first compound 0.1581 µM): 0.537 | relative viability (NCI-H2087; first compound 0.5 µM): 0.794 | relative viability (NCI-H441; first compound 0.005 µM): 0.732 | relative viability (NCI-H441; first compound 0.01581 µM): 0.635 | relative viability (NCI-H441; first compound 0.05 µM): 0.58 | relative viability (NCI-H441; first compound 0.1581 µM): 0.56 | relative viability (NCI-H441; first compound 0.5 µM): 0.849 | relative viability (NCI-H460; first compound 0.005 µM): 0.652 | relative viability (NCI-H460; first compound 0.01581 µM): 0.702 | relative viability (NCI-H460; first compound 0.05 µM): 0.821 | relative viability (NCI-H460; first compound 0.1581 µM): 0.652 | relative viability (NCI-H460; first compound 0.5 µM): 0.671 | relative viability (NCI-H520; first compound 0.01581 µM): 0.231 | relative viability (NCI-H520; first compound 0.05 µM): 0.318 | relative viability (NCI-H520; first compound 0.1581 µM): 0.201 | relative viability (NCI-H520; first compound 0.5 µM): 0.31 | relative viability (NCI-H596; first compound 0.005 µM): 0.765 | relative viability (NCI-H596; first compound 0.01581 µM): 0.684 | relative viability (NCI-H596; first compound 0.1581 µM): 0.953 | relative viability (NCI-H596; first compound 0.5 µM): 0.8 | relative viability (NCI-H650; first compound 0.005 µM): 0.525 | relative viability (NCI-H650; first compound 0.01581 µM): 0.569 | relative viability (NCI-H650; first compound 0.05 µM): 0.525 | relative viability (NCI-H650; first compound 0.1581 µM): 0.498 | relative viability (NCI-H650; first compound 0.5 µM): 0.547 | relative viability (NCI-H661; first compound 0.005 µM): 0.734 | relative viability (NCI-H661; first compound 0.01581 µM): 0.775 | relative viability (NCI-H661; first compound 0.05 µM): 0.793 | relative viability (NCI-H661; first compound 0.1581 µM): 0.687 | relative viability (NCI-H661; first compound 0.5 µM): 0.716 | relative viability (NCI-H727; first compound 0.005 µM): 0.675 | relative viability (NCI-H727; first compound 0.01581 µM): 0.692 | relative viability (NCI-H727; first compound 0.1581 µM): 0.663 | relative viability (NCI-H727; first compound 0.5 µM): 0.728 | relative viability (PC-3 [JPC-3]; first compound 0.005 µM): 0.844 | relative viability (PC-3 [JPC-3]; first compound 0.01581 µM): 0.764 | relative viability (PC-3 [JPC-3]; first compound 0.05 µM): 0.768 | relative viability (PC-3 [JPC-3]; first compound 0.1581 µM): 0.809 | relative viability (PC-3 [JPC-3]; first compound 0.5 µM): 0.703
